Experimental data published in patent US8378115B2, “Monomethine dyes” (Thermo Fisher Scientific (Milwaukee) LLC, priority 2007, dated 2013).

Experiments:
[1] = Absorption spectra of dye alone; format: physicochemical; details: for ε: in M-1·cm-1 (unit assumed)
Description: (§1) Stock solutions (8 mM) of each dye were prepared by dissolving each compound in dimethylsulfoxide (DMSO). Stock dye solutions were diluted to a desired concentration in tris-EDTA (TE) buffer (10 mM Tris, 1 mM EDTA, pH 8.0) immediately prior to use.
[…] […] Optical densities were determined at the absorbance maxima and the extinction coefficients were calculated using Beer's law.

40mer dsDNA [2] = experiment: Fluorescence enhancement of dye with 40mer dsDNA; format: binding
λDNA = experiment: Fluorescence enhancement of dye with λDNA; format: binding
Description: as §1
(§2) Stock solutions of λDNA and 40mer synthetic oligonucleotides (dsDNA and ssDNA), each at a concentration of 40 μM, were prepared in TE buffer. All DNA concentrations described are in base pairs of nucleotides. The DNA stock solutions were diluted to a desired concentration in TE buffer before being mixed with diluted dye solutions.
(§3) Fluorescence enhancement measurements of each dye were obtained by incubating dyes with λDNA, 40mer dsDNA, or 40mer ssDNA at a final concentration of 0.8 μM dye and 3.2 μM DNA for one minute. Fluorescence scans of the samples were performed with excitation wavelengths corresponding to the absorption maxima of the dyes. The resulting fluorescence intensities were compared to fluorescence intensities of Thiazole Orange (TO) and a compound equivalent to SYBR Green without the side chain (V02-06101), shown below,
(§4) [drawing 15] binding to λDNA, 40mer dsDNA, or 40mer ssDNA at a final concentration of 0.8 μM TO and 3.2 μM DNA for one minute, the same as for the tested dyes. The discrimination ratio between dsDNA and ssDNA was calculated by comparing the fluorescence intensities.

40mer dsDNA [3] = experiment: Fluorescence enhancement of dye with 40mer dsDNA; format: binding; remark: listed apart in the source
Description: as §1, §2, §3, §4

[4] = 0.8 μM dye, 3.2 μM DNA, one minute

CCN(CC)c1ccc2c(/C=C3\Oc4ccccc4N3CC)cc(-c3ccccc3)[o+]c2c1 [Dye V02-06188]
λex ([1]; Ethanol): 520 nm
ε ([1]; Ethanol): 58,000
λex ([1]; TE Buffer, 8 μM dye): 499 nm
ε ([1]; TE Buffer, 8 μM dye): 20,444
binding preference dsDNA over ssRNA (40mer dsDNA [2]): slight preference for binding to dsDNA over binding to ssRNA
Fluorescence relative to TO (λDNA; [4]): 0.6
Fluorescence λ DNA/ssDNA (λDNA; [4]): 1.5
Ratio λ DNA/ss (λDNA; fluorescence λ DNA vs ss-DNA): 2
Relative Fluorescent Intensity (λDNA; λ DNA, TO = 1.0): 0.6
Relative Fluorescent Intensity (40mer dsDNA [3]; 40-mer ds-DNA, TO = 1.0): 0.6
Ratio ds/ss (40mer dsDNA [3]; fluorescence 40-mer ds-DNA vs ss-DNA): 1.5
